From ChEMBL document CHEMBL1201862, “PubChem BioAssay data set” (2004)
Activity calls are given as the source filed them.

Columns and labels:
[1] = target: T1, Sentrin-specific protease 6 (Homo sapiens, UniProt Q9GZR1); test: SAR Analysis of small molecule inhibitors of Sentrin-specific protease 6 (SENP6) using a Luminescent assay. [Related pubchem assays (depositor defined):AID2582, AID2599]; type: functional
T1 sequence (Q9GZR1 whole entry): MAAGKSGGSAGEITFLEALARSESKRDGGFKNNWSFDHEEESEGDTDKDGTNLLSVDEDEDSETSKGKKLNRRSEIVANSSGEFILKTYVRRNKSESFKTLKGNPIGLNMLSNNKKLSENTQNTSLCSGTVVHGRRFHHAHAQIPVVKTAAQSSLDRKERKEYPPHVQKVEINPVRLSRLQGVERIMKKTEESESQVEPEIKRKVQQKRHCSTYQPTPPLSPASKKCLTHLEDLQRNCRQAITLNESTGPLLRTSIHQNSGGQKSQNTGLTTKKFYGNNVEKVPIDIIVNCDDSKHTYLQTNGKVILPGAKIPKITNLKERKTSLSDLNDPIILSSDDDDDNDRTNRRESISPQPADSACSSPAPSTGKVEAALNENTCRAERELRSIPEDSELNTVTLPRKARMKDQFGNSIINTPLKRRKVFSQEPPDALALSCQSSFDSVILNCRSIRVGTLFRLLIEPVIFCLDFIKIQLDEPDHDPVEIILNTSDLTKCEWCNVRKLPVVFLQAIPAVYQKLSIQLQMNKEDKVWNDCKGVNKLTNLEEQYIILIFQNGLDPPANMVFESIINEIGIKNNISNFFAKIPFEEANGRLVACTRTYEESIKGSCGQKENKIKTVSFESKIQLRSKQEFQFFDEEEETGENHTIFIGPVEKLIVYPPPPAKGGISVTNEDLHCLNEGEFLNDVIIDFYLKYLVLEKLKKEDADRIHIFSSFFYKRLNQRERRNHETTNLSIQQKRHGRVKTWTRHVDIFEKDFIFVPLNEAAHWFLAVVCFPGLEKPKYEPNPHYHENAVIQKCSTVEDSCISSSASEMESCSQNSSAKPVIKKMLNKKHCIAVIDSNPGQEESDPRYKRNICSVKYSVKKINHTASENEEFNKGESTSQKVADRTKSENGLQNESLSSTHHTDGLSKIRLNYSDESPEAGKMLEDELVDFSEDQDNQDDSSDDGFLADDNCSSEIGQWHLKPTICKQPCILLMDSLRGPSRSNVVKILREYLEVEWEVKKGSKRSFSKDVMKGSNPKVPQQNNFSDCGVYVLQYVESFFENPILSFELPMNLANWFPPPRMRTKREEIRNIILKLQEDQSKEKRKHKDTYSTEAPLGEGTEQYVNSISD

[2] = target: T2, Sentrin-specific protease 8 (Homo sapiens, UniProt Q96LD8); test: inhibition of human SENP8 cleavage activity – biochemical, luminescence, SAR follow-up (AID 504501); type: functional
T2 sequence (Q96LD8 whole entry): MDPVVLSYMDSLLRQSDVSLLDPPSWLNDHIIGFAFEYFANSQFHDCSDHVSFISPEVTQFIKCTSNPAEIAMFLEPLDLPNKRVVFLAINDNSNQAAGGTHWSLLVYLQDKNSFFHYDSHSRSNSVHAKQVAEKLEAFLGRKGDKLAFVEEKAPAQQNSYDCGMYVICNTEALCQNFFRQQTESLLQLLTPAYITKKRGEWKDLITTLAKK

Caspase-3 = target: T3, Caspase-3 (Homo sapiens, UniProt P42574); test: SAR Analysis of small molecule inhibitors of Sentrin-specific proteases (SENPs) using a Caspase-3 Selectivity assay. [Related pubchem assays (depositor defined):AID2540, AID2599, AID434973, AID489001]; type: functional
T3 sequence (P42574 whole entry): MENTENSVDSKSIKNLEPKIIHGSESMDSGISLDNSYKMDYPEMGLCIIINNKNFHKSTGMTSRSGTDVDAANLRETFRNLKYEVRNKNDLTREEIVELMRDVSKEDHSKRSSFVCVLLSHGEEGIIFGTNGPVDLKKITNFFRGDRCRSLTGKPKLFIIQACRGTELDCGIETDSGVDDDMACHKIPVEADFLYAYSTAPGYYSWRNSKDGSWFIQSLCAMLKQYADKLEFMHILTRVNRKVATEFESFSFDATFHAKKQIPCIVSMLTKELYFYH

A-375 [3] = test: proliferation inhibition in MITF-low A375 cells – cell-based, cherry-pick samples, set 2, counter-screen for MITF modulator project, dose response (AID 540335); type: functional; details: Homo sapiens
Jurkat = test: blockers of NF-kB activation in T cells – Jurkat, luciferase reporter, luminescence, B- and T-cell, dose response (AID 489004); type: functional, cell-based; details: Homo sapiens;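 note: NF-kB luciferase reporter Jurkat cells stimulated with PMA plus ionomycin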
[4] = target: Glyceraldehyde-3-phosphate dehydrogenase (Homo sapiens, UniProt P04406)
HT-1080 = test: HT1080 cell viability loss – fluorescence readout (AID 620); type: functional, cell-based; details: Homo sapiens
Leucine aminopeptidase = target: T4, Leucine aminopeptidase (Plasmodium falciparum 3D7, UniProt Q8IL11); test: P. falciparum M17LAP inhibitors, primary screen, biochemical, fluorogenic H-Leu-NHMec substrate, 1536-well (AID 1619); type: functional
T4 sequence (Q8IL11 whole entry): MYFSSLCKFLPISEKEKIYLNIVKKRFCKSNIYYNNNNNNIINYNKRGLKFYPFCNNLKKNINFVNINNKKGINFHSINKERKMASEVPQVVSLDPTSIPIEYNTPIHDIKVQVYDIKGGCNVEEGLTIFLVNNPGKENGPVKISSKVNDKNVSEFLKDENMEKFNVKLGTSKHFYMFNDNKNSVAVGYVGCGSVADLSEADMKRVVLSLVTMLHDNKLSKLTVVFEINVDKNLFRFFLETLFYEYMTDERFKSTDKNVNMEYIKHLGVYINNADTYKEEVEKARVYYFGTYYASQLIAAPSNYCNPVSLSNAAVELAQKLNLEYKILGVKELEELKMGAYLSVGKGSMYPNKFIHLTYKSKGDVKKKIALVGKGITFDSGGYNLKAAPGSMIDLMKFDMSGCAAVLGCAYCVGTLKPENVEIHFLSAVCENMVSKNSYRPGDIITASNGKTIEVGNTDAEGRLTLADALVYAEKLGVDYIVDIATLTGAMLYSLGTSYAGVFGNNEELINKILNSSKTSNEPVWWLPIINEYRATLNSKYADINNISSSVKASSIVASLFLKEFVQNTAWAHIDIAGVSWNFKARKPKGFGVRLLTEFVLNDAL

A-375 [5] = test: MITF: Counter assay: A375 proliferation Measured in Cell-Based System Using Plate Reader - 2084-03_Inhibitor_Dose_DryPowder_Activity. [Related pubchem assays (depositor defined):AID488944]; type: functional; details: Homo sapiens

Chain of Glyceraldehyde-3-phosphate dehydrogenase (P04406 whole entry): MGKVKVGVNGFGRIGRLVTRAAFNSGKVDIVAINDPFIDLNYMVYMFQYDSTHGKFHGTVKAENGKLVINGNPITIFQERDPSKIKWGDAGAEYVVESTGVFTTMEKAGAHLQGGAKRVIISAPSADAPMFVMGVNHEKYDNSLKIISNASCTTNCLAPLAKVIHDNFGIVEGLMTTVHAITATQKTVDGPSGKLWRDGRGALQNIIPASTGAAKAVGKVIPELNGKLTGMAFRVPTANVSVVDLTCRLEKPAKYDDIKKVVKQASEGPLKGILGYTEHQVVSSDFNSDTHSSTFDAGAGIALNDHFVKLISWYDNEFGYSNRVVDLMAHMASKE

SMILES	IC50 [1]	IC50 [2]	IC50 (Caspase-3)	AC50 (A-375 [3])	IC50 (Jurkat)	IC50 [4]	EC50 (HT-1080)	IC50 (Leucine aminopeptidase)	AC50 (A-375 [5])
N#Cc1c(NC(=O)CSc2nc[nH]n2)sc2c1CCCCC2	8.05 µM (active)	12.7 µM (active)	40.4 µM (active)	> 35 µM (active)	< 0.16 µM (active)	> 100 µM (not active)	> 50 µM (not active)	< 1 µM (active)	> 35 µM (active)
COc1ccc(C(N)c2nccc3cc(OC)c(OC)cc23)cc1OC (configuration not stated)	> 99 µM (inactive)	> 99 µM (inactive)	> 99 µM (inactive)	–	–	–	–	–	–
